Data taken from patent US20100267561A1, “HERBICIDAL PYRIDAZINONE DERIVATIVES” (priority 2007, published 2010).

Legend:
Experiment in all cases: Test E pre-/postemergence plant response
Assay type in all cases: in vivo
[1] = system: broadleaf signalgrass (Brachiaria platyphylla); conditions: scale 0 to 100
Source text: (§1) Seeds of plant species selected from bermudagrass (Cynodon dactylon), Surinam grass (Brachiaria decumbens), large crabgrass (Digitaria sanguinalis), green foxtail (Setaria viridis), goosegrass (Eleusine indica), johnsongrass (Sorghum halepense), kochia (Kochia scoparia), pitted morningglory (Ipomoea lacunosa), purple nutsedge (Cyperus rotundus), common ragweed (Ambrosia elation), black mustard (Brassica nigra), guineagrass (Panicum maximum), dallisgrass (Paspalum dilatatum), barnyardgrass (Echinochloa crus-galli), southern (S.) sandbur (Cenchrus echinatus), common sowthistle (Sonchus oleraceous), prickly sida (Sida spinosa), Italian ryegrass (Lolium multiflorum), common purslane (Portulaca oleracea), broadleaf signalgrass (Brachiaria platyphylla), common groundsel (Senecio vulgaris), common chickweed (Stellaria media), Virginia (V.) dayflower (Commelina virginica), tropical (T.) spiderwort (Commelina benghalensis), annual bluegrass (Poa annua), naked crabgrass (Digitaria nuda), itchgrass (Rottboellia cochinchinensis), quackgrass (Elytrigia repens), Canada horseweed (Conyza canadensis), field bindweed (Convolvulus arvensis), spanishneedles (Bidens bipinnata), common mallow (Malva sylvestris) and Russian thistle (Salsola kali) were planted and treated preemergence with test chemicals formulated in a non-phytotoxic solvent mixture which included a surfactant. At the same time, plants selected from these weed species were treated with postemergence applications of some of the test chemicals formulated in the same manner. Plants ranged in height from 2 to 18 cm (1- to 4-leaf stage) for postemergence treatments.
(§2) Treated plants and controls were maintained in a greenhouse for 14 to 21 days, after which time all species were compared to controls and visually evaluated. Plant response ratings, summarized in Table E, are based on a scale of 0 to 100 where 0 is no effect and 100 is complete control. A dash (-) response means no test result.

[2] = system: naked crabgrass (Digitaria nuda); conditions: scale 0 to 100
Source text: as §1, §2

[3] = system: common groundsel (Senecio vulgaris); conditions: Postemergence, scale 0 to 100
Source text: as §1, §2

[4] = system: common purslane (Portulaca oleracea); conditions: scale 0 to 100
Source text: as §1, §2

[5] = system: Italian ryegrass (Lolium multiflorum); conditions: scale 0 to 100
Source text: as §1, §2

[6] = system: dallisgrass (Paspalum dilatatum); conditions: scale 0 to 100
Source text: as §1, §2

[7] = system: southern (S.) sandbur (Cenchrus echinatus); conditions: scale 0 to 100
Source text: as §1, §2

[8] = system: quackgrass (Elytrigia repens); conditions: scale 0 to 100
Source text: as §1, §2

[9] = system: large crabgrass (Digitaria sanguinalis); conditions: scale 0 to 100
Source text: as §1, §2

[10] = system: common chickweed (Stellaria media); conditions: Postemergence, scale 0 to 100
Source text: as §1, §2

[11] = system: black mustard (Brassica nigra); conditions: scale 0 to 100
Source text: as §1, §2

Cn1ncc(O)c(-c2nn(-c3ccc(Cl)cc3)cc2Br)c1=O [Compound 31]
98: Plant response rating, Crabgrass, Naked ([2]; 31 g ai/ha, Preemergence) | Plant response rating, Dallisgrass ([6]; 62 g ai/ha, Preemergence)
70: Plant response rating, Dallisgrass ([6]; Postemergence, 62 g ai/ha) | Plant response rating, Sandbur, S. ([7]; Postemergence, 16 g ai/ha)
15: Plant response rating, Signalgrass ([1]; 16 g ai/ha, Preemergence) | Plant response rating, Dallisgrass ([6]; 16 g ai/ha, Preemergence) | Plant response rating, Sandbur, S. ([7]; 16 g ai/ha, Preemergence)
0: Plant response rating, Crabgrass, Naked ([2]; 8 g ai/ha, Preemergence) | Plant response rating, Groundsel ([3]; 8 g ai/ha) | Plant response rating, Groundsel ([3]; 16 g ai/ha) | Plant response rating, Purslane ([4]; 16 g ai/ha, Preemergence) | Plant response rating, Purslane ([4]; 31 g ai/ha, Preemergence) | Plant response rating, Purslane ([4]; 62 g ai/ha, Preemergence) | Plant response rating, Purslane ([4]; Postemergence, 8 g ai/ha) | Plant response rating, Purslane ([4]; Postemergence, 16 g ai/ha) | Plant response rating, Purslane ([4]; Postemergence, 31 g ai/ha) | Plant response rating, Purslane ([4]; Postemergence, 62 g ai/ha) | Plant response rating, Dallisgrass ([6]; 8 g ai/ha, Preemergence) | Plant response rating, Sandbur, S. ([7]; Postemergence, 8 g ai/ha) | Plant response rating, Quackgrass ([8]; 16 g ai/ha, Preemergence) | Plant response rating, Quackgrass ([8]; Postemergence, 8 g ai/ha) | Plant response rating, Crabgrass, Large ([9]; 8 g ai/ha, Preemergence) | Plant response rating, Chickweed ([10]; 8 g ai/ha) | Plant response rating, Chickweed ([10]; 16 g ai/ha) | Plant response rating, Chickweed ([10]; 31 g ai/ha) | Plant response rating, Mustard, Black ([11]; 8 g ai/ha, Preemergence) | Plant response rating, Mustard, Black ([11]; 16 g ai/ha, Preemergence) | Plant response rating, Mustard, Black ([11]; 31 g ai/ha, Preemergence) | Plant response rating, Mustard, Black ([11]; 62 g ai/ha, Preemergence) | Plant response rating, Mustard, Black ([11]; Postemergence, 8 g ai/ha) | Plant response rating, Mustard, Black ([11]; Postemergence, 16 g ai/ha) | Plant response rating, Mustard, Black ([11]; Postemergence, 31 g ai/ha) | Plant response rating, Mustard, Black ([11]; Postemergence, 62 g ai/ha)
20: Plant response rating, Sandbur, S. ([7]; 31 g ai/ha, Preemergence) | Plant response rating, Quackgrass ([8]; 31 g ai/ha, Preemergence)
35: Plant response rating, Ryegrass, Italian ([5]; Postemergence, 16 g ai/ha) | Plant response rating, Dallisgrass ([6]; Postemergence, 8 g ai/ha)
100: Plant response rating, Crabgrass, Naked ([2]; 62 g ai/ha, Preemergence) | Plant response rating, Ryegrass, Italian ([5]; 62 g ai/ha, Preemergence)
40: Plant response rating, Dallisgrass ([6]; Postemergence, 16 g ai/ha) | Plant response rating, Crabgrass, Large ([9]; 16 g ai/ha, Preemergence)
90: Plant response rating, Crabgrass, Naked ([2]; Postemergence, 62 g ai/ha) | Plant response rating, Ryegrass, Italian ([5]; 31 g ai/ha, Preemergence) | Plant response rating, Ryegrass, Italian ([5]; Postemergence, 62 g ai/ha) | Plant response rating, Sandbur, S. ([7]; 62 g ai/ha, Preemergence)
60: Plant response rating, Dallisgrass ([6]; Postemergence, 31 g ai/ha) | Plant response rating, Crabgrass, Large ([9]; Postemergence, 8 g ai/ha)
75: Plant response rating, Signalgrass ([1]; Postemergence, 31 g ai/ha) | Plant response rating, Signalgrass ([1]; Postemergence, 62 g ai/ha) | Plant response rating, Crabgrass, Naked ([2]; Postemergence, 31 g ai/ha) | Plant response rating, Dallisgrass ([6]; 31 g ai/ha, Preemergence) | Plant response rating, Sandbur, S. ([7]; Postemergence, 31 g ai/ha) | Plant response rating, Sandbur, S. ([7]; Postemergence, 62 g ai/ha) | Plant response rating, Crabgrass, Large ([9]; 31 g ai/ha, Preemergence) | Plant response rating, Crabgrass, Large ([9]; Postemergence, 31 g ai/ha)
95: Plant response rating, Crabgrass, Large ([9]; 62 g ai/ha, Preemergence)
50: Plant response rating, Crabgrass, Naked ([2]; 16 g ai/ha, Preemergence) | Plant response rating, Ryegrass, Italian ([5]; Postemergence, 31 g ai/ha) | Plant response rating, Quackgrass ([8]; Postemergence, 62 g ai/ha)
65: Plant response rating, Signalgrass ([1]; 31 g ai/ha, Preemergence) | Plant response rating, Signalgrass ([1]; Postemergence, 8 g ai/ha) | Plant response rating, Signalgrass ([1]; Postemergence, 16 g ai/ha) | Plant response rating, Crabgrass, Naked ([2]; Postemergence, 16 g ai/ha) | Plant response rating, Ryegrass, Italian ([5]; 16 g ai/ha, Preemergence) | Plant response rating, Quackgrass ([8]; 62 g ai/ha, Preemergence) | Plant response rating, Crabgrass, Large ([9]; Postemergence, 16 g ai/ha)
30: Plant response rating, Crabgrass, Naked ([2]; Postemergence, 8 g ai/ha) | Plant response rating, Ryegrass, Italian ([5]; Postemergence, 8 g ai/ha) | Plant response rating, Quackgrass ([8]; Postemergence, 16 g ai/ha) | Plant response rating, Quackgrass ([8]; Postemergence, 31 g ai/ha)
80: Plant response rating, Signalgrass ([1]; 62 g ai/ha, Preemergence) | Plant response rating, Crabgrass, Large ([9]; Postemergence, 62 g ai/ha)
